Measured values reported in the supplement of paper PMC10307832.

Compound: CC(C)=CC[C@@H](O)C1=CC(=O)c2c(O)ccc(O)c2C1=O [Shikonin] + COc1cc2c(Oc3ccc(NC(=O)C4(C(=O)Nc5ccc(F)cc5)CC4)cc3F)ccnc2cc1OCCCN1CCOCC1 [Foretinib] (partner 0.25 µM)
Test: relative viability (nuclei count vs DMSO), 5 days (fraction); higher = more cells survive
Settings: first compound 0.01 µM
In short: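 Five library-drug doses in √10 steps were combined with a fixed anchor-drug dose, or a single drug was given alone, by pin tool to lung cancer cell lines in 1536-well plates the day after seeding. Nuclei were stained and counted after 5 days. Relative viability is the nuclei count in treated wells over that in vehicle wells, taken as the median of duplicate plates.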

Point of comparison: NCI-H1993, relative viability 0.782. Against it:
- NCI-H2342 — higher, 1
- NCI-H1623 — higher, 0.874
- PC-14 — higher, 0.914
- NCI-H1650 — higher, 1.18
- EBC-1 — lower, 0.0907
- NCI-H1703 — lower, 0.361
- NCI-H2009 — higher, 1.24
- NCI-H520 — higher, 0.801
- PC-3 [JPC-3] — higher, 1.06
- LCLC-103H — higher, 0.875
- NCI-H647 — higher, 1.29
- NCI-H2228 — higher, 0.824
- EMC-BAC-2 — higher, 0.993
- NCI-H2087 — higher, 1.04
- Calu-6 — higher, 0.962
- HCC-366 — higher, 0.928
- NCI-H1666 — higher, 0.932
- NCI-H650 — higher, 1.01
- LK-2 — higher, 1.15
- NCI-H2126 — higher, 1.06
- SK-MES-1 — higher, 1.01
- H3255 — higher, 0.851
- COR-L23 — higher, 1.05
- COR-L 105 — higher, 1.44
- IA-LM — higher, 1.14
- LOU-NH91 — higher, 0.955
- ChaGo-K-1 — higher, 0.97
- A549 — higher, 1.05
- SW 900 — higher, 1.04
- NCI-H2023 — higher, 0.921
- NCI-H1299 — higher, 1.08
- NCI-H661 — higher, 0.987
- NCI-H1563 — higher, 0.935
- SW 1573 — higher, 0.929
- SK-LU-1 — higher, 0.869

Same assay, conditions: first compound 0.1 µM

Point of comparison: PC-3 [JPC-3], relative viability 1.16. Against it:
- NCI-H2342 — lower, 1.12
- NCI-H1623 — lower, 0.866
- PC-14 — lower, 1
- NCI-H1650 — lower, 1.07
- EBC-1 — lower, 0.107
- NCI-H1703 — lower, 0.401
- NCI-H2009 — higher, 1.37
- NCI-H1993 — lower, 0.696
- NCI-H520 — lower, 0.759
- LCLC-103H — lower, 0.847
- NCI-H647 — higher, 1.46
- NCI-H2228 — lower, 0.619
- EMC-BAC-2 — lower, 1.05
- NCI-H2087 — lower, 1.07
- Calu-6 — lower, 0.904
- HCC-366 — higher, 1.2
- NCI-H1666 — lower, 1.02
- NCI-H650 — lower, 0.999
- LK-2 — higher, 1.31
- NCI-H2126 — higher, 1.2
- SK-MES-1 — higher, 1.2
- H3255 — lower, 0.876
- COR-L23 — lower, 0.813
- COR-L 105 — higher, 1.31
- IA-LM — higher, 1.42
- LOU-NH91 — lower, 0.934
- ChaGo-K-1 — lower, 1.06
- A549 — lower, 1.03
- SW 900 — lower, 0.987
- NCI-H2023 — lower, 0.863
- NCI-H1299 — lower, 1.15
- NCI-H661 — lower, 1.08
- NCI-H1563 — lower, 0.848
- SW 1573 — lower, 0.894
- SK-LU-1 — lower, 0.907

Same assay, conditions: first compound 0.3162 µM

Point of comparison: NCI-H1623, relative viability 1.06. Against it:
- NCI-H2342 — lower, 1.03
- PC-14 — higher, 1.15
- NCI-H1650 — lower, 0.985
- EBC-1 — lower, 0.11
- NCI-H1703 — lower, 0.319
- NCI-H2009 — higher, 1.31
- NCI-H1993 — lower, 0.767
- NCI-H520 — lower, 0.8
- PC-3 [JPC-3] — higher, 1.1
- LCLC-103H — lower, 0.953
- NCI-H647 — higher, 1.51
- NCI-H2228 — lower, 0.895
- EMC-BAC-2 — higher, 1.16
- NCI-H2087 — higher, 1.19
- Calu-6 — lower, 1.02
- HCC-366 — lower, 0.979
- NCI-H1666 — lower, 1.01
- NCI-H650 — higher, 1.08
- LK-2 — higher, 1.85
- NCI-H2126 — higher, 1.18
- SK-MES-1 — lower, 0.965
- H3255 — lower, 0.869
- COR-L23 — lower, 1.03
- COR-L 105 — higher, 1.34
- IA-LM — higher, 1.32
- LOU-NH91 — lower, 1.04
- ChaGo-K-1 — lower, 1.05
- A549 — higher, 1.16
- SW 900 — lower, 0.915
- NCI-H2023 — lower, 0.887
- NCI-H1299 — higher, 1.09
- NCI-H661 — higher, 1.09
- NCI-H1563 — the same, 1.06
- SW 1573 — higher, 1.13
- SK-LU-1 — lower, 0.863

Same assay, conditions: first compound 1 µM

Point of comparison: NCI-H1666, relative viability 0.961. Against it:
- NCI-H2342 — higher, 1.03
- NCI-H1623 — lower, 0.917
- PC-14 — higher, 1.09
- NCI-H1650 — higher, 1.32
- EBC-1 — lower, 0.112
- NCI-H1703 — lower, 0.329
- NCI-H2009 — higher, 1.06
- NCI-H1993 — lower, 0.715
- NCI-H520 — lower, 0.696
- PC-3 [JPC-3] — higher, 1.1
- LCLC-103H — lower, 0.942
- NCI-H647 — higher, 1.31
- NCI-H2228 — lower, 0.806
- EMC-BAC-2 — higher, 0.972
- NCI-H2087 — higher, 1.1
- Calu-6 — lower, 0.885
- HCC-366 — lower, 0.939
- NCI-H650 — higher, 1.01
- LK-2 — higher, 1.16
- NCI-H2126 — higher, 1.43
- SK-MES-1 — lower, 0.939
